In ChEMBL document CHEMBL3804815, “Aloperine and Its Derivatives as a New Class of HIV-1 Entry Inhibitors” (ACS Med Chem Lett, 2016):
Calls of active or inactive are those of the source. The calls are words filed in the database; no cut-off is given here.

Key:
[1] = Cytotoxicity against human MT4 cells assessed as reduction in cell viability after 3 days by CellTiter-Glo luminescent assay; assay type: cell-based
[2] = tested on: Human immunodeficiency virus 1; test: Antiviral activity against HIV1 NL4-3 infected in human MT4 cells assessed as reduction in viral replication measured on day 3 post infection by Nano-Glo luciferase reporter gene assay; assay type: functional, organism-based; settings: Human immunodeficiency virus 1, NL4-3, MT4, 72 h
[3] = tested on: Human immunodeficiency virus 1; test: Antiviral activity against HIV1 NL4-3 assessed as inhibition of viral infection in human MT4 cells treated 2 hrs post infection; assay type: functional, organism-based
[4] = Inhibition of HIV1 NL4-3 Env-induced cell-cell fusion between viral envelope expressing African green monkey COS cells to CXCR4 receptor expressing human TZM-bl cells after overnight incubation by Bright-Glo luciferase assay; assay type: cell-based; settings: Human immunodeficiency virus 1, NL4-3, COS
COS [5] = test: Inhibition of HIV1 8X gp120-induced cell-cell fusion between viral envelope expressing African green monkey COS cells and human TZM-bl cells at 0.001 to 10 uM after overnight incubation by Bright-Glo luciferase assay; assay type: cell-based; settings: Human immunodeficiency virus 1
[6] = tested on: Human immunodeficiency virus 1; test: Antiviral activity against HIV1 NL4-3 assessed as inhibition of early phase viral infection in human MT4 cells; assay type: functional, organism-based
COS [7] = test: Inhibition of BMS-806 resistant HIV1 YU2 gp120 T198P mutant-induced cell-cell fusion between viral envelope expressing African green monkey COS cells to CCR5 receptor expressing human TZM-bl cells at 0.001 to 10 uM after overnight incubation by Bright-Glo luciferase assay; assay type: cell-based; settings: Human immunodeficiency virus type 1 (isolate YU2)
[8] = Inhibition of HIV1 YU2 gp120-induced cell-cell fusion between viral envelope expressing African green monkey COS cells to CCR5 receptor expressing human TZM-bl cells after overnight incubation by Bright-Glo luciferase assay; assay type: cell-based, Human immunodeficiency virus type 1 (isolate YU2); settings: Human immunodeficiency virus 1, COS
COS [9] = test: Inhibition of HIV1 NL4-3 Env-induced cell-cell fusion between viral envelope expressing African green monkey COS cells to CXCR4 receptor expressing human TZM-bl cells at 0.01 to 10 uM after overnight incubation by Bright-Glo luciferase assay; assay type: cell-based; settings: Human immunodeficiency virus 1
COS [10] = test: Inhibition of HIV1 YU2 gp120-induced cell-cell fusion between viral envelope expressing African green monkey COS cells to CCR5 receptor expressing human TZM-bl cells at 0.01 to 10 uM after overnight incubation by Bright-Glo luciferase assay; assay type: cell-based; settings: Human immunodeficiency virus type 1 (isolate YU2)

Row | SMILES | CC50 at 72 h [1] [µM] | EC50 [2] [µM] | also measured
1 | C1CN[C@@H]2C(C1)C[C@H]1C[C@@H]2CN2CCCC[C@H]12 (stereo partly specified) | > 85.5 | > 10 | –
2 | O=C(NCCCCN1CCCC2=C[C@H]3C[C@H](CN4CCCC[C@H]34)[C@@H]21)c1ccc(F)cc1 | > 47.1 | > 10 | –
3 | O=C(Cc1ccc(OC(F)(F)F)cc1)NCCN1CCCC2=C[C@H]3C[C@H](CN4CCCC[C@H]34)[C@@H]21 | > 41.9 | > 10 | –
4 | O=C(NCCCCCCN1CCCC2=C[C@H]3C[C@H](CN4CCCC[C@H]34)[C@@H]21)c1ccc(OC(F)(F)F)cc1 | 18.5 | 5.44 | –
5 | O=C(NCCN1CCCC2=C[C@H]3C[C@H](CN4CCCC[C@H]34)[C@@H]21)c1ccc(OC(F)(F)F)cc1 | > 43.2 | > 10 | –
6 | O=C(Cc1ccc(OC(F)(F)F)cc1)NCCCN1CCCC2=C[C@H]3C[C@H](CN4CCCC[C@H]34)[C@@H]21 | > 40.7 | 7.68 | –
7 | Cc1ccc(C(=O)NCCCCN2CCCC3=C[C@H]4C[C@H](CN5CCCC[C@H]45)[C@@H]32)cc1 | > 47.5 | 4.98 | –
8 | O=C(NCCCCN1CCCC2=C[C@H]3C[C@H](CN4CCCC[C@H]34)[C@@H]21)c1ccccc1OC(F)(F)F | > 40.7 | > 10 | –
9 | C1=C2CCCN[C@H]2[C@@H]2C[C@H]1[C@H]1CCCCN1C2 | > 86.2 | 1.75 | inhibition [3]: inactive; EC50 [4]: 1.2 µM; inhibition (COS [5]): Active; inhibition [6]: Active; inhibition (COS [7]): Active; EC50 [8]: 1.6 µM
10 | O=C(NCCCCN1CCCC2=C[C@H]3C[C@H](CN4CCCC[C@H]34)[C@@H]21)c1ccc(O)cc1 | > 47.3 | 4.57 | –
11 | O=C(NCCCCCN1CCCC2=C[C@H]3C[C@H](CN4CCCC[C@H]34)[C@@H]21)c1ccc(OC(F)(F)F)cc1F | > 38.2 | 6.21 | –
12 | FC(F)(F)Oc1ccc(CNCCCCN2CCCC3=C[C@H]4C[C@H](CN5CCCC[C@H]45)[C@@H]32)cc1 | 6.2 | 4.2 | –
13 | NCCCCCN1CCCC2=C[C@H]3C[C@H](CN4CCCC[C@H]34)[C@@H]21 | > 63.1 | 5.38 | –
14 | CN1CCCC2=C[C@H]3C[C@H](CN4CCCC[C@H]34)[C@@H]21 | > 81.3 | > 10 | –
15 | O=C(NCCCN1CCCC2=C[C@H]3C[C@H](CN4CCCC[C@H]34)[C@@H]21)c1ccc(OC(F)(F)F)cc1 | > 41.9 | > 10 | –
16 | C=C(C)[C@@H]1CC[C@]2(C(=O)NCCCCCCCNC(C)=O)CC[C@]3(C)[C@H](CC[C@@H]4[C@@]5(C)CC[C@H](O)C(C)(C)[C@@H]5CC[C@]43C)[C@@H]12 | > 32.8 | 0.025 | inhibition (COS [9]): Active; inhibition (COS [10]): Active
17 | O=C(NCCCCN1CCCC2=C[C@H]3C[C@H](CN4CCCC[C@H]34)[C@@H]21)c1ccc(C(F)(F)F)cc1 | > 42.1 | 0.69 | –
18 | O=C(NCCCCCN1CCCC2=C[C@H]3C[C@H](CN4CCCC[C@H]34)[C@@H]21)c1ccc(OC(F)(F)F)cc1 | 12.9 | 0.98 | –
19 | O=C(Cc1ccc(OC(F)(F)F)cc1)NCCCCCN1CCCC2=C[C@H]3C[C@H](CN4CCCC[C@H]34)[C@@H]21 | 17.5 | 4.21 | –
